Results published in paper PMC5042751 (Molecular Medicine Reports, 2016).
Read-outs that look alike come from different tables or passages of the source.

Tests used:
[1] = system: Mrp2; experiment: Intestinal and hepatic mRNA expression by RT-qPCR; assay type: in vivo, rats
[2] = system: Slco1b2; experiment: Hepatic mRNA expression by RT-qPCR; assay type: in vivo, rats; conditions: rat liver
[3] = system: Ugt1a1; experiment: Intestinal and hepatic mRNA expression by RT-qPCR; assay type: in vivo, rats
[4] = system: OATP2B1; experiment: Intestinal protein expression by western blotting; assay type: in vivo, rats; conditions: rat small intestine
[5] = system: Cyp3a1
[6] = system: Slco2b1; experiment: Intestinal mRNA expression by RT-qPCR; assay type: in vivo, rats; conditions: rat small intestine
[7] = system: P-gp; conditions: for decrease in protein expression level of P-gp: Que 100 mg/kg (high-dose) oral 7 days vs control
[8] = system: Cyp3a2
[9] = system: Ugt1a1; experiment: Intestinal and hepatic protein expression by western blotting; assay type: in vivo, rats
[10] = system: Mrp2; experiment: as above; assay type: in vivo, rats
[11] = system: Cyp3a1; remark: listed apart in the source
[12] = system: Bcrp; experiment: Intestinal and hepatic protein expression by western blotting; assay type: in vivo, rats
[13] = system: Mdr1; conditions: for decrease in mRNA expression level of Mdr1: rat liver
[14] = system: Cyp3a2; remark: listed apart in the source
[15] = system: Bcrp; experiment: Intestinal and hepatic mRNA expression by RT-qPCR; assay type: in vivo, rats
[16] = system: OATP1B2; experiment: Hepatic protein expression by western blotting; assay type: in vivo, rats; conditions: rat liver
[17] = rat liver, Que 25 mg/kg oral 7 days without CsA (Que-WOC) vs control
[18] = rat liver, Que 25 mg/kg with CsA 10 mg/kg oral 7 days (Que-WC) vs CsA alone
[19] = rat liver, Que 50 mg/kg oral 7 days without CsA (Que-WOC) vs control
[20] = rat liver, Que 50 mg/kg with CsA 10 mg/kg oral 7 days (Que-WC) vs CsA alone
[21] = rat liver, Que 100 mg/kg oral 7 days without CsA (Que-WOC) vs control
[22] = rat liver, Que 100 mg/kg with CsA 10 mg/kg oral 7 days (Que-WC) vs CsA alone
[23] = rat small intestine, Que 25 mg/kg oral 7 days without CsA (Que-WOC) vs control
[24] = rat small intestine, Que 50 mg/kg oral 7 days without CsA (Que-WOC) vs control
[25] = rat small intestine, Que 100 mg/kg oral 7 days without CsA (Que-WOC) vs control
[26] = Que 25 mg/kg oral 7 days without CsA (Que-WOC) vs control
[27] = Que 50 mg/kg oral 7 days without CsA (Que-WOC) vs control
[28] = Que 50 mg/kg with CsA 10 mg/kg oral 7 days (Que-WC) vs CsA treatment
[29] = Que 100 mg/kg oral 7 days without CsA (Que-WOC) vs control
[30] = Que 100 mg/kg with CsA 10 mg/kg oral 7 days (Que-WC) vs CsA treatment
[31] = rat liver, Que 25 mg/kg (low-dose) oral 7 days vs control
[32] = rat liver, Que 50 mg/kg (moderate-dose) oral 7 days vs control
[33] = rat liver, Que 100 mg/kg with CsA 10 mg/kg oral 7 days (Que-WC) vs CsA treatment
[34] = rat liver, Que 100 mg/kg (high-dose) oral 7 days vs control

## O=c1c(O)c(-c2ccc(O)c(O)c2)oc2cc(O)cc(O)c12 [Que, 3,3′,4′,5,7-pentahydroxyflavone]
[1]; [17]
  decrease in mRNA expression level of Mrp2: 45%
[1]; [18]
  decrease in mRNA expression level of Mrp2: 38%
[1]; [19]
  decrease in mRNA expression level of Mrp2: 52%
[1]; [20]
  decrease in mRNA expression level of Mrp2: 36%
[1]; [21]
  decrease in mRNA expression level of Mrp2: 98%
[1]; [22]
  decrease in mRNA expression level of Mrp2: 99%
[1]; [23]
  decrease in mRNA expression level of Mrp2: 45%
[1]; [24]
  decrease in mRNA expression level of Mrp2: 69%
[1]; [25]
  decrease in mRNA expression level of Mrp2: 96%
[2]; [26]
  decrease in mRNA expression level of Slco1b2: 79%
[2]; Que 25 mg/kg with CsA 10 mg/kg oral 7 days (Que-WC) vs CsA treatment
  decrease in mRNA expression level of Slco1b2: 72%
[2]; [27]
  decrease in mRNA expression level of Slco1b2: 92%
[2]; [28]
  decrease in mRNA expression level of Slco1b2: 90%
[2]; [29]
  decrease in mRNA expression level of Slco1b2: 95%
[2]; [30]
  decrease in mRNA expression level of Slco1b2: 94%
[3]; [17]
  decrease in mRNA expression of Ugt1a1: 41%
[3]; [18]
  decrease in mRNA expression level of Ugt1a1: 28%
[3]; [19]
  decrease in mRNA expression of Ugt1a1: 81%
[3]; [20]
  decrease in mRNA expression level of Ugt1a1: 71%
[3]; [21]
  decrease in mRNA expression of Ugt1a1: 92%
[3]; [22]
  decrease in mRNA expression level of Ugt1a1: 92%
[3]; [23]
  decrease in mRNA expression of Ugt1a1: 20%
[3]; [24]
  decrease in mRNA expression of Ugt1a1: 76%
[3]; [25]
  decrease in mRNA expression of Ugt1a1: 84%
[4]; [26]
  change in protein expression level of OATP2B1: did not produce a significant effect
[4]; [27]
  decrease in protein expression level of OATP2B1: 43%
[4]; [29]
  decrease in protein expression level of OATP2B1: 76%
[5]; [17]
  decrease in mRNA expression level of Cyp3a1: 37%
[5]; [18]
  decrease in mRNA expression level of Cyp3a1: 31%
[5]; [19]
  decrease in mRNA expression level of Cyp3a1: 86%
[5]; [20]
  decrease in mRNA expression level of Cyp3a1: 77%
[5]; [21]
  decrease in mRNA expression level of Cyp3a1: 98%
[5]; [22]
  decrease in mRNA expression level of Cyp3a1: 65%
[5]; [23]
  decrease in mRNA expression level of Cyp3a1: 45%
[5]; [24]
  decrease in mRNA expression level of Cyp3a1: 83%
[5]; [25]
  decrease in mRNA expression level of Cyp3a1: 88%
[6]; [26]
  decrease in mRNA expression level of Slco2b1: 84%
[6]; [27]
  decrease in mRNA expression level of Slco2b1: 92%
[6]; [29]
  decrease in mRNA expression level of Slco2b1: 97%
[7]; [31]
  change in protein expression level of P-gp: did not produce a significant effect
[7]; [32]
  change in protein expression level of P-gp: did not produce a significant effect
[7]; rat liver
  decrease in protein expression level of P-gp: 84%
[7]; [33]
  decline in protein expression level of P-gp: 76%
[7]; rat small intestine, Que 25 mg/kg (low-dose) oral 7 days vs control
  change in protein expression level of P-gp: did not produce a significant effect
[7]; rat small intestine, Que 50 mg/kg (moderate-dose) oral 7 days vs control
  change in protein expression level of P-gp: did not produce a significant effect
[7]; rat small intestine
  decrease in protein expression level of P-gp: 81%
[8]; [17]
  decrease in mRNA expression level of Cyp3a2: 21%
[8]; [18]
  decrease in mRNA expression level of Cyp3a2: 16%
[8]; [19]
  decrease in mRNA expression level of Cyp3a2: 37%
[8]; [20]
  decrease in mRNA expression level of Cyp3a2: 48%
[8]; [21]
  decrease in mRNA expression level of Cyp3a2: 49%
[8]; [22]
  decrease in mRNA expression level of Cyp3a2: 57%
[8]; [23]
  decrease in mRNA expression level of Cyp3a2: 61%
[8]; [24]
  decrease in mRNA expression level of Cyp3a2: 70%
[8]; [25]
  decrease in mRNA expression level of Cyp3a2: 90%
[9]; [17]
  decrease in protein expression level of UGT1A1: 16%
[9]; [18]
  change in protein expression level of UGT1A1: did not produce significant effects
[9]; [19]
  decrease in protein expression level of UGT1A1: 42%
[9]; [20]
  change in protein expression level of UGT1A1: did not produce significant effects
[9]; [21]
  decrease in protein expression level of UGT1A1: 87%
[9]; [22]
  decrease in protein expression level of UGT1A1: 72%
[9]; [23]
  decrease in protein expression level of UGT1A1: 12%
[9]; [24]
  decrease in protein expression level of UGT1A1: 41%
[9]; [25]
  decrease in protein expression level of UGT1A1: 91%
[10]; [17]
  decrease in protein expression level of MRP2: 14%
[10]; rat liver, Que 25 mg/kg with CsA 10 mg/kg oral 7 days (Que-WC) vs CsA treatment
  decrease in protein expression level of MRP2: 22%
[10]; [19]
  decrease in protein expression level of MRP2: 27%
[10]; rat liver, Que 50 mg/kg with CsA 10 mg/kg oral 7 days (Que-WC) vs CsA treatment
  decrease in protein expression level of MRP2: 23%
[10]; [21]
  decrease in protein expression level of MRP2: 58%
[10]; [33]
  decrease in protein expression level of MRP2: 35%
[10]; [23]
  decrease in protein expression level of MRP2: 13%
[10]; [24]
  decrease in protein expression level of MRP2: 45%
[10]; [25]
  decrease in protein expression level of MRP2: 93%
[11]; [31]
  change in protein expression level of CYP3A1: did not produce significant effects
[11]; [32]
  change in protein expression level of CYP3A1: did not produce significant effects
[11]; [34]
  decrease in protein expression level of CYP3A1: 70%
[11]; [22]
  decrease in protein expression level of CYP3A1: 56%
[11]; [23]
  decrease in protein expression level of CYP3A1: 17%
[11]; [24]
  decrease in protein expression level of CYP3A1: 45%
[11]; [25]
  decrease in protein expression level of CYP3A1: 91%
[12]; [17]
  decrease in protein expression level of BCRP: 7%
[12]; [18]
  decrease in protein expression level of BCRP: 23%
[12]; [19]
  decrease in protein expression level of BCRP: 27%
[12]; [20]
  decrease in protein expression level of BCRP: 31%
[12]; [21]
  decrease in protein expression level of BCRP: 75%
[12]; [22]
  decrease in protein expression level of BCRP: 67%
[12]; [23]
  decrease in protein expression level of BCRP: 17%
[12]; [24]
  decrease in protein expression level of BCRP: 49%
[12]; [25]
  decrease in protein expression level of BCRP: 90%
[13]; [26]
  decrease in mRNA expression level of Mdr1: 64%
[13]; Que 25 mg/kg with CsA 10 mg/kg oral 7 days (Que-WC) vs CsA alone
  decrease in mRNA expression level of Mdr1: 68%
[13]; [27]
  decrease in mRNA expression level of Mdr1: 87%
[13]; Que 50 mg/kg with CsA 10 mg/kg oral 7 days (Que-WC) vs CsA alone
  decrease in mRNA expression level of Mdr1: 68%
[13]; [29]
  decrease in mRNA expression level of Mdr1: 91%
[13]; Que 100 mg/kg with CsA 10 mg/kg oral 7 days (Que-WC) vs CsA alone
  decrease in mRNA expression level of Mdr1: 90%
[13]; [23]
  change in mRNA expression level of Mdr1: did not produce a significant effect
[13]; [24]
  increase in mRNA expression level of Mdr1: 75%
[13]; [25]
  increase in mRNA expression level of Mdr1: 80%
[14]; [31]
  change in protein expression level of CYP3A2: did not produce significant effects
[14]; [32]
  change in protein expression level of CYP3A2: did not produce significant effects
[14]; [34]
  decrease in protein expression level of CYP3A2: 73%
[14]; [22]
  decrease in protein expression level of CYP3A2: 54%
[14]; [23]
  decrease in protein expression level of CYP3A2: 14%
[14]; [24]
  decrease in protein expression level of CYP3A2: 40%
[14]; [25]
  decrease in protein expression level of CYP3A2: 95%
[15]; [17]
  decrease in mRNA expression level of Bcrp: 55%
[15]; [18]
  decrease in mRNA expression level of Bcrp: 68%
[15]; [19]
  decrease in mRNA expression level of Bcrp: 77%
[15]; [20]
  decrease in mRNA expression level of Bcrp: 77%
[15]; [21]
  decrease in mRNA expression level of Bcrp: 88%
[15]; [22]
  decrease in mRNA expression level of Bcrp: 89%
[15]; [23]
  decrease in mRNA expression level of Bcrp: 46%
[15]; [24]
  decrease in mRNA expression level of Bcrp: 70%
[15]; [25]
  decrease in mRNA expression level of Bcrp: 92%
[16]; [26]
  change in protein expression level of OATP1B2: did not produce a significant effect
[16]; [27]
  decrease in protein expression level of OATP1B2: 48%
[16]; [28]
  decrease in protein expression level of OATP1B2: 38%
[16]; [29]
  decrease in protein expression level of OATP1B2: 86%
[16]; [30]
  decrease in protein expression level of OATP1B2: 72%
